Assay results reported in paper PMC6530537, “Efficient development of stable and highly functionalised peptides targeting the CK2α/CK2β protein–protein interaction” (Chemical Science, 2019).
Changes are numbered by the printed parent chain. Where a SMILES comes first, the peptide text is derived from it. Bridges are numbered along the chain shown (N, C = ends). [ ]: non-standard residue; d: D form. Dap(N3) = [N-]=[N+]=NC[C@H](N)C(=O)O

Tests used:
[1] = tested on: HCT116 cells; assay: cells; format: cell-based, human; conditions: Homo sapiens, HCT-116, 96 h; HCT116 cells, 4 day incubation, SYTOX green imaging, average of at least four independent repeats; read-out: GI50
Description: (§1) page 47: 1.5. Biological experimental 1.5.1. […] The experiment was performed in duplicates. 1.5.2. […] 1.5.3. […] 46

[2] = tested on: U2OS cells; assay: cells; format: cell-based, human; conditions: Homo sapiens, 96 h; U2OS cells, 4 day incubation, SYTOX green imaging, average of at least four independent repeats; read-out: GI50
Description: as §1

[3] = target: T1, CK2α (Homo sapiens, UniProt P68400); assay: Fluorescence polarisation assay: displacement of fluorescein-labelled CK2β-derived probe from CK2α; format: binding; conditions: FP, 15 µM test compound, 450 nM CK2α, 7.4 nM CK2β_pep probe, 350 mM NaCl, 20 mM Mes pH 6.5, 30 min incubation, triplicates; approximate; read-out: % inhibition at 15 μM (CK2β-like probe displacement)
T1 construct: CK2α_WT was used (residues 2-329); His6 (N, cleaved yes); made in house; host or cells: Escherichia coli BL21(DE3)
T1 sequence (P68400 2-329): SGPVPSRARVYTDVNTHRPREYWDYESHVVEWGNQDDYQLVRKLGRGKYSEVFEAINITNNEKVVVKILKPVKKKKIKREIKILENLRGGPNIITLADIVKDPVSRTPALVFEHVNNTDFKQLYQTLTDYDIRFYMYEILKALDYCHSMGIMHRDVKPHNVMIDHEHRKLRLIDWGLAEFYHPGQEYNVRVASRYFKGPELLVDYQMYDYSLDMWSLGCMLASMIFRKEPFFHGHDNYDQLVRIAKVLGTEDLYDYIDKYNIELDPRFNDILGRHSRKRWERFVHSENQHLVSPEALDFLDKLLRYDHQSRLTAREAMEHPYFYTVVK
Excerpt: Molecular modelling identified Cys2 and Gly11 of Pc,[34] corresponding to P185 and P194 of CK2β, as suitable residues to staple: they make negligible contributions to the binding and are positioned at a suitable distance from each other to accommodate a 2C-CuAAC staple (ESI, Fig. S1 ^†). To cyclise the peptide, azido amino acids bearing one-carbon-atom side chains (Fmoc-Aza-OH) were used in combination with aliphatic linkers of different lengths as proposed by molecular modelling (Fig. 2 and ESI Table S1 ^†). The ability of the synthesised macrocycles to disrupt the α/β PPI of CK2 was then tested in a preliminary fluorescent polarisation assay (FP) (Fig. 2). […]
(§2) lysed using a high-pressure homogeniser.
(§3) The soluble supernatant was applied on a […]
(§4) mM NaCl, 1mM DTT, 1mM EDTA, pH 8.5). 100µL of the precision protease was loaded onto the […]
Pure protein was concentrated to 15 mg/mL and flash frozen in liquid N2.
1.4.2. Fluorescent Polarisation anisotropy
Approximate % inhibition of
The experiment was performed in triplicates.
(§5) 1.4.3. Isothermal Calorimetry Titration
(§6) 1.4.3.1. Direct binding assay
(§7) DMSO) and concentrated to 20-50 μM. Compounds in 100× stock solutions were diluted into the […]
(§8) Control titrations were performed, and the […]

[4] = pH 6.5
[5] = target: T2, CK2α (Homo sapiens, UniProt P68400, K74A/K75A/K76A/R21S); assay: Isothermal titration calorimetry, direct binding to CK2α; conditions: ITC, 25°C, CK2α_KA, Tris 200 mM, NaCl 300 mM, 10% DMSO, single site binding model
T2 construct: CK2α_KA (residues 2 -329) contained four; His6 (N, cleaved yes); made in house; host or cells: Escherichia coli BL21(DE3)
T2 sequence (P68400 2-329 R21S/K74A/K75A/K76A): T1 sequence (P68400 2-329) with R20S, K73A, K74A, K75A
Description: as §2, §3, §4
Pure protein was concentrated to 15 mg/mL and flash frozen in liquid N2. […]
as §5, §6, §7, §8

[6] = target: T3, CK2α/CK2β interaction (Homo sapiens, UniProt P68400); assay: ITC competition assay: CK2β binding to CK2α alone and in the presence of peptide; conditions: 25°C
T3 construct: CK2α_WT was used (residues 2-329); His6 (N, cleaved yes); made in house; host or cells: Escherichia coli BL21(DE3)
T3 sequence (P68400 2-329): T1 sequence (P68400 2-329)
Description: We then wanted to investigate whether the peptides would be able to inhibit the binding of the β subunit to the α subunit. To this end, the binding affinity of the regulatory β subunit for the catalytic domain was determined via ITC (Kd 9 nM). This was then repeated in the presence of 100 μM P1-C4 and P2-C4 (ESI, Table S4 ^†). […] As one of the key roles of CK2β is to recruit substrates to the kinase, the effect of PPI inhibition on substrate phosphorylation was studied using CK2β dependent and independent substrates. […] It should be noted that the kinase assay was performed using the pre-formed CK2α/β complex as the ability of CK2α to phosphorylate eIF2β requires the presence of the CK2β subunit.
1.4.3.2. Competition assay […]
concentrated to 4-6 μM. CK2β (9.3 mg/mL, 20 mM Tris pH 8.5, 500 mM NaCl) was diluted in Tris buffer (200 mM, NaCl, 300 mM, 10% DMSO) and concentrated to 40 μM. In a typical experiment, […]
performed at 150 second intervals. The syringe was loaded with CK2β and rotated at 750 rpm. The same experiment was repeated in the presence of the peptide s: compounds at 1 mM in DMSO were added to the solutions of CK2α and CK2β (prepared as described above) to a final concentration of […]
binding model using Origin software. […]
(CK2β-RAD) 200s, baseline 120s (assay buffer), control loading 200s (RAD), baseline 150s (assay buffer), ligand binding (association) 400s (CK2α K74A and CAM7117) and ligand dissociation 600s (assay buffer), followed by regeneration and next cycles. […]
GraphPad. The results are the average of 4 repeats and error shown as SEM.
Figure S10- Sensorgrams of the BLI competition experiments to assess the ability of P2-C4 to […] the CK2α/CK2β-RAD complex. a) Concentration of peptide ranging from 10 to 0.025 μM and 0 μM. b) Concentration of peptide ranging from 10 to 5 nM and 0 nM.
(1 picture or pasted object on this page, not shown here)

Work on `O=C(O)c1ccc2c(c1)nc(Nc1cccc(Cl)c1)c1ccncc12` [CX4945, reference compound] yielded a GI50 [1] of 14 ± 2 µM and a GI50 [2] of 7 ± 1 µM.

For `CC[C@H](C)[C@@H]1NC(=O)[C@H](CCCCN)NC(=O)[C@H](Cc2ccccc2)NC(=O)CNC(=O)[C@H](Cc2ccc(O)cc2)NC(=O)[C@H](CC(C)C)NC(=O)[C@H](CCCNC(=N)N)NC(=O)[C@@H](NC(C)=O)Cn2cc(nn2)CCc2cn(nn2)C[C@@H](C(N)=O)NC(=O)[C@H](Cc2c[nH]cn2)NC1=O` [P0-C1], the inhibition at 15 µM [3] was 0.6 ± 0.5%.

In the case of `CC[C@H](C)[C@@H]1NC(=O)[C@H](CCCCN)NC(=O)[C@H](Cc2ccccc2)NC(=O)CNC(=O)[C@H](Cc2ccc(O)cc2)NC(=O)[C@H](CC(C)C)NC(=O)[C@H](CCCNC(=N)N)NC(=O)[C@@H](NC(=O)CNC(C)=O)Cn2cc(nn2)Cc2cn(nn2)C[C@@H](C(=O)NCC(=O)NCC(N)=O)NC(=O)[C@H](Cc2c[nH]cn2)NC1=O` [P1-C3], the “Solubility under the assay conditions” value [4] is reported as “insoluble”.

In the case of `CC[C@H](C)[C@@H]1NC(=O)[C@H](CCCCN)NC(=O)[C@H](Cc2ccccc2)NC(=O)CNC(=O)[C@H](Cc2ccc(O)cc2)NC(=O)[C@H](CC(C)C)NC(=O)[C@H](CCCNC(=N)N)NC(=O)[C@@H](NC(=O)CNC(C)=O)Cn2cc(nn2)-c2cc(C(=O)O)cc(c2)-c2cn(nn2)C[C@@H](C(=O)NCC(=O)NCC(N)=O)NC(=O)[C@H](Cc2c[nH]cn2)NC1=O` [P1-C4], the inhibition at 15 µM [3] is reported as 93 ± 1%, the Kd [5] is reported as 0.46 µM and the “Binding of CK2β to CK2α in the presence of peptide” value ([6]; 100 μM peptide, preliminary assay) is reported as “no binding of CK2β to CK2α was detected”.

Work on `CC(=O)NCC(=O)N[C@@H](CN=[N+]=[N-])C(=O)N[C@@H](CCCNC(=N)N)C(=O)N[C@@H](CC(C)C)C(=O)N[C@@H](Cc1ccc(O)cc1)C(=O)NCC(=O)N[C@@H](Cc1ccccc1)C(=O)N[C@@H](CCCCN)C(=O)N[C@@H](Cc1c[nH]c2ccccc12)C(=O)N[C@@H](Cc1c[nH]cn1)C(=O)N[C@@H](CN=[N+]=[N-])C(=O)NCC(=O)NCC(N)=O` [P2] (Ac-G[Dap(N3)]RLYGFKWH[Dap(N3)]GG-NH2) yielded a Kd [5] of 44 µM.

Work on `CC[C@H](C)[C@@H]1NC(=O)[C@H](CCCCN)NC(=O)[C@H](Cc2ccccc2)NC(=O)CNC(=O)[C@H](Cc2ccc(O)cc2)NC(=O)[C@H](CC(C)C)NC(=O)[C@H](CCCNC(=N)N)NC(=O)[C@@H](NC(=O)CNC(C)=O)CSSC[C@@H](C(=O)NCC(N)=O)NC(=O)CNC(=O)[C@H](Cc2c[nH]cn2)NC1=O` [Pc, reference compound] (Ac-GCRLYGFKIHGCG-NH2; disulfide 2-12) yielded a Kd [5] of 1 µM.

Work on “CK2β: regulatory β subunit of CK2, recombinant construct (1-198)” yielded a Kd ([6]; CK2β in the syringe, CK2α in the cell, no peptide, read-out: Kd of the regulatory β subunit for the catalytic domain CK2α) of 0.009 µM.

For “GXC2RLYGFKIHXC2GG (sidechain bridge or staple) [P1-C2]”, the “Solubility under the assay conditions” value [4] was “insoluble”.
